Counter-ions that a name gives are not always drawn.

One experiment relates to ROCK II. Kind of experiment: ROCK II expression in HepG2 cells. The class given is cell-based. On the procedure:
HepG2 cells were treated with various concentrations of drugs for 24 hours. Reactions were terminated by washing twice with cold PBS, and the cells were then harvested. Proteins in the whole-cell lysate were homogenized in an ice-cold lysis buffer and a protease inhibitor (Sigma-Aldrich, St. Louis, MO, U.S.A.). The homogenate was centrifuged at 90, 000 g for 15 minutes at 4°C, and supernatant was recovered as the total cellular protein. Cytosolic and membrane fractions of HepG2 cells were prepared using a CNM (Cytosol Nuclear Membrane) compartment protein extraction kit (BioChain Institute Inc., Hayward, CA, U.S.A.) according to the manufacturer's instructions. All of the fractionated protein solutions were stored at -80°C until analysis. To measure the expression levels of proteins by drugs, the total cell protein was extracted after incubation with treatments for 24 hours and then Western blotting analysis was performed as described previously.
To confirm that RhoA antagonist C3 exoenzyme (5 µg/ml) and ROCK antagonist Y27632 (10 µM), dissolved in 10% popyleneglycol, can inactivate_the expression of ROCK II, they were added to cells in culture for 24 hours, respectively, to measure the expression of ROCK II and related expressions of PPARγ and ABCA-1 in HepG2 cells.

The test system of the next experiment is mice fed with HFD. Nature of the experiment: HFD-fed mice, 8 weeks: serum and liver lipid levels, body weight, food intake. The class given is in vivo, C57BL/6J male mice. More on the design: TG / Tot. chol. / HDL chol. / LDL chol.: unit not given here. The following applies: for HDL (HDL cholesterol) / LDL (LDL cholesterol) / TG of liver (Triacylglycerol) / TG in serum (Triacylglycerol): HFD for 8 weeks; for TG in serum (Triacylglycerol): means±SE; for HDL chol. / LDL chol. / TG / Tot. chol.: Table 2, HFD mice, unit not given in Table 2 (Table 1 gives mg/dl). On the procedure:
During the 2 month experiments, mice fasted for one night before the experiment was changed from a standard diet (STD) to a HFD and then the mice were randomly divided into 5 groups, including 2 control and 3 treatment groups. Six mice were used in each group. The control mice received either STD or HFD and the protection group was fed HFD with KMUP-1 HCl (2.5 and 5 mg/kg/day), simvastatin (5 mg/kg/day) or a target drug administered by gavage to assess weight gain followed by biochemical analysis. Liver from the protection group supplemented with KMUP-1 HCl (1 mg/kg/day) were used to determine the HMG CoA reductase expression.
Within 2 months, the 3 day food intake average for each animal was measured. The weight gain and plasma lipid levels of each group were determined and compared to the non-treatment control group. […] Agents used in the assays were obtained from Merck & Co. (Kenilworth, NJ, U.S.A.). Triglyceride (TG), total cholesterol, HDL cholesterol and LDL cholesterol in mouse serum were measured by methods used in the clinic. To measure the hepatic TG, isolated liver were cut into small chips.

A further experiment has as its system HMG CoA reductase. Kind of experiment: HFD-induced HMG CoA reductase expression in liver, 8 weeks. The class given is in vivo, mice. Particulars: HFD 8 weeks; KMUP-1 HCl 2.5, 5 mg/kg; simvastatin 5 mg/kg, by gavage. On the procedure: During the 2 month experiments, mice fasted for one night before the experiment was changed from a standard diet (STD) to a HFD and then the mice were randomly divided into 5 groups, including 2 control and 3 treatment groups. Six mice were used in each group. The control mice received either STD or HFD and the protection group was fed HFD with KMUP-1 HCl (2.5 and 5 mg/kg/day), simvastatin (5 mg/kg/day) or a target drug administered by gavage to assess weight gain followed by biochemical analysis. […]
The obtained protein extract was boiled to a ratio of 4:1 with a sample buffer (Tris 100 mM, pH 6.8, glycerol 20%, SDS 4% and bromophenol blue 0.2%).
The blot was then incubated with anti-mouse or anti-goat IgG linked to alkaline phosphatase (1:1000) for 1 hour.

Turning to `C[C@@H](N)[C@H]1CC[C@H](C(=O)Nc2ccncc2)CC1` [Y27632], the “ROCK II expression (Fig. 24A)” value in the experiment on ROCK II (HepG2, 24 hours, C3 exoenzyme 5 µg/ml, Y27632 10 µM) is “reduced”.
Take “8-(p-chloro-phenylthio)guanosine-3,5-monophosphorothioate [Rp-8-pCPT-cGMPS]”: in the experiment on ROCK II (HepG2, 10µM cGMP antagonist alone), the “ROCK II expression (Fig. 24B)” value is reported as “increased”.
As for `Cn1c(=O)c2c(ncn2CCN2CCN(c3ccccc3Cl)CC2)n(C)c1=O` [KMUP-1, 7-[2-[4-(2-chlorophenyl)piperazinyl]ethyl]-1,3-dimethyl xanthine], in the experiment with mice fed with HFD (2.5mg/kg by gavage), the “HDL (HDL cholesterol)” value is 103.6 ± 4.2 mg/dL, the “LDL (LDL cholesterol)” value worked out at 14.2 ± 1.4 mg/dL, the “TG of liver (Triacylglycerol)” value was determined as 28.4 ± 3.6 mg/dL and the “TG in serum (Triacylglycerol)” value was 74.5 ± 5.1 mg/dL. Further, in the experiment with mice fed with HFD (5mg/kg by gavage), the “HDL (HDL cholesterol)” value came out at 118.3 ± 5.7 mg/dL, the “LDL (LDL cholesterol)” value came to 14.2 ± 2.2 mg/dL, the “TG of liver (Triacylglycerol)” value turned out to be 26.12 ± 3.1 mg/dL and the “TG in serum (Triacylglycerol)” value stood at 72.7 ± 4.7 mg/dL.
Turning to `CCC(C)(C)C(=O)O[C@H]1C[C@@H](C)C=C2C=C[C@H](C)[C@H](CC[C@@H]3C[C@@H](O)CC(=O)O3)[C@H]21` [simvastatin, reference compound], in the experiment on mice fed with HFD (5mg/kg by gavage), the “HDL (HDL cholesterol)” value came to 103.2 ± 2.5 mg/dL, the “LDL (LDL cholesterol)” value came to 15.3 ± 1.3 mg/dL, the “TG of liver (Triacylglycerol)” value is reported as 35.5±2.** mg/dl and the “TG in serum (Triacylglycerol)” value came to 82.7 ± 6.3 mg/dL.
In the experiment on mice fed with HFD (Dose 2.5 mg/kg), `Cn1c(=O)c2c(ncn2CCN2CCN(c3ccccc3Cl)CC2)n(C)c1=O` [KMUP-1 HCl, 7-[2-[4-(2-chlorophenyl)piperazinyl]ethyl]-1,3-dimethylxanthine HCl complex] had an HDL chol. of 103.6± 4.2, an LDL chol. of 14.2± 1.4, a TG of 74.5± 5.1 and a Tot. chol. of 133± 5.1. In the experiment on mice fed with HFD (Dose 5 mg/kg), this compound gave an HDL chol. of 118.3± 5.7, an LDL chol. of 14.2± 2.2, a TG of 72.67± 4.7 and a Tot. chol. of 125.5± 9.8. Moreover, in the experiment on HMG CoA reductase, the “HFD-induced downregulation of HMG CoA reductase expression in liver” value is “significantly reversed”.
